Laboratory results taken from patent US10195156B2, “Compounds and compositions for intracellular delivery of agents” (ModernaTX, Inc., priority 2015, dated 2019).
Where two headings read alike, the source gives them in different places.

What was measured:
[1] = test system: LDL-c; test: LDL levels in LDLr−/− mice after mRNA encoding the LDL receptor; format: in vivo, LDLR knockout mice; details: for response vs control in vivo at 0.5 mg/kg: Mus musculus, Table 7b, LDLr−/− mice, 0.5 mpk, LDLr, read-out: LDL levels lipid/untreated LDLr−/− mice 0.5 mpk, LDLr
[2] = test system: hEPO mRNA expression; test: Expression of hEPO in rats after intravenous administration; format: in vivo; details: for hEPO expression in rats (in words): FIG. 8, i.v., 2 mpk (Graph A)
Protocol: PBS (phosphate buffered saline) is used as control.
Formulations were prepared according to Table 5 and included mRNA encoding hEPO.
[…] After the 48 hour time point, livers and spleens were harvested and frozen.

[3] = Tolerability / toxicity in rats (hEPO study); format: in vivo; details: FIG. 8, i.v., 2 mg/kg dose
[4] = pKa of nanoparticle compositions; format: physicochemical
[5] = test system: GFP expression in liver cells; test: Mouse liver immunohistochemistry (IHC) with GFP mRNA; format: in vivo; details: FIG. 11, i.v., 0.5 mpk, 6 h (MC3, CD-1) or 8 h (Compound 4, LDLR knockout)
Protocol: FIG. 11 is a pair of images comparing the results of a mouse liver immunohistochemistry (IHC) using mRNA expressing green fluorescent protein (GFP) after administration of nanoparticle compositions containing Compound 4 and MC3.
FIG. 16 is a graph showing GFP levels in the livers of LDLR knockout mice at 30 min to 24 h after intravenous administration of an eGFP RNA in a lipid composition containing Compound 4. The liver GFP levels were determined via IHC. The square markers represent the number of GFP positive cells following administration of a dose of 0.1 mpk of the composition. The circular markers represent the number of GFP positive cells following administration of a dose of 0.5 mpk of the composition.

[6] = test system: Luc expression; test: ApoE dependence of luciferase expression (ApoE knockout vs. wild-type mice); format: in vivo; details: 0.5 mpk, 6 h
Excerpt: FIG. 17 is a pair of graphs showing the ApoE dependence of luciferase (“Luc”) expression following administration of a composition containing Luc mRNA and Compound 4 to mice at a dose 0.5 mpk. The expression following administration of a composition containing Luc mRNA and MC3 is presented for comparison. […] The % change in Luc expression in livers of ApoE knockout vs. wild-type mice (i.e., (WT mean expression-KO mean expression)/WT mean expression]*100%) was 91.9% for Compound 4 and 97.5% for MC3. […] The % change in expression in spleens of ApoE knockout vs. wild-type mice was 4.34% for Compound 4 and 72.2% for MC3. Numbers 1-4 refer to the following: 1: Composition containing Compound 4, administered to ApoE knockout mice; 2: Composition containing Compound 4, administered to wild-type mice; 3: Composition containing MC3, administered to ApoE knockout mice; 4: Composition containing MC3, administered to wild-type mice.

[7] = Encapsulation efficiency of RNA (QUANT-IT RIBOGREEN RNA assay); format: physicochemical
Method in brief: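 Nanoparticle samples diluted to ~5 μg/mL RNA in TE buffer (pH 7.5), incubated with or without 2% Triton X-100 solution at 37 °C for 15 min, then RiboGreen added. Fluorescence read at ~480/520 nm, blank-subtracted; free RNA % = intact over Triton-disrupted signal.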

[8] = Particle size and polydispersity index of nanoparticle compositions (Zetasizer Nano ZS); format: physicochemical
Method in brief: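 In 1×PBS, the compositions were sized on a Zetasizer Nano ZS, which also reported their polydispersity index.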

[9] = test system: LDLr−/− mice; test: Expression in LDLr−/− mice (LDLr dependence); format: in vivo; details: FIG. 9, FIG. 10
[10] = test system: hEPO mRNA expression; test: hEPO levels in non-human primates; format: in vivo; details: FIG. 10, up to ~50 h
Protocol: FIG. 10 is a graph showing hEPO levels in non-human primates up to ˜50 h after administration of a nanoparticle composition containing Compound 4, compared to a composition containing MC3.
The tolerability and efficacy of nanoparticle compositions to non-human primates is evaluated in Cynomolgus monkeys. Monkeys are administered an optimized nanoparticle composition including an mRNA encoding hEPO once weekly for four weeks. The levels of hEPO protein, mRNA, and cytokine profiles are measured using ELISA-based techniques before and 2, 6, 12, 24, 48, 72, and 120 hours after each administration.

[11] = Lipid levels in liver and spleen 48 hours after administration; format: in vivo, rats; details: for concentration at 48 h: Sprague-Dawley, rat, intravenous
Protocol: Formulations were administered intravenously to rats (n=3 or 6) at a dosage of 0.2 mg/kg or 0.5 mg/kg (mpk) and hEPO levels measured at 3, 6, and 24 hour time points. After the 48 hour time point, livers and spleens were harvested and frozen.
The amount of lipid in the liver and spleen 48 hours after administration of a nanoparticle composition was also measured. […] In contrast, approximately 60% of doses including MC3 or Compound 22 remained in the liver after 48 hours. Less than 3% of the dose remained in the spleen for each composition tested.

[12] = test system: IP-10; test: Cytokine production induced by sample formulations: IP-10; format: in vivo; details: Table 4; mice, i.v., 0.5 mpk, 6 hours; in pg/mL (unit assumed)
Method in brief: (§1)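 Mice received nanoparticle formulations intravenously at 0.5 mpk, with standard MC3 formulation and PBS as controls. Cytokine concentrations were measured 6 hours after dosing.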

[13] = test system: IL-6; test: Cytokine production induced by sample formulations: IL-6; format: in vivo; details: Table 4; mice, i.v., 0.5 mpk, 6 hours; in pg/mL (unit assumed)
Method in brief: as §1

[14] = test system: modified luciferase expression; test: Expression of Luc in different organs (liver, lung, spleen, femur) 6 hours after intravenous administration; format: in vivo; details: Table 3, mice, i.v., 0.5 mpk
Protocol: The efficacy of the nanoparticle compositions presented in Tables 1, 1a, 17-1, 19-1, 20-1 and 21-1 was further evaluated by measuring the expression of modified luciferase in the liver, lung, spleen, and femur upon administration of a given composition. Formulations were administered intravenously to mice (n=3) at a dosage of 0.5 mpk and bioluminescence measured after 6 hours. The standard MC3 formulation and a PBS control were also tested.

[15] = test system: luciferase (Luc) mRNA expression; test: Expression of Luc induced by sample formulations, whole-body bioluminescence after intravenous administration; format: in vivo; details: for Total Flux 3 hours / Total Flux 6 hours / Total Flux 24 hours: Table 2
Method in brief: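 Mice (n=6) dosed intravenously with Luc mRNA nanoparticle formulations at 0.5 mg/kg. Whole-body bioluminescence measured at 3, 6 and 24 h. Standard MC3 formulation and PBS control run alongside.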

[16] = Concentration of RNA in nanoparticle composition (ultraviolet-visible spectroscopy); format: physicochemical; details: Table 5, hEPO mRNA
Protocol: Ultraviolet-visible spectroscopy can be used to determine the concentration of a therapeutic and/or prophylactic agent (e.g., RNA) in nanoparticle compositions. 100 μL of the diluted formulation in 1×PBS is added to 900 μL of a 4:1 (v/v) mixture of methanol and chloroform. After mixing, the absorbance spectrum of the solution is recorded, for example, between 230 nm and 330 nm on a DU 800 spectrophotometer (Beckman Coulter, Beckman Coulter, Inc., Brea, Calif.). The concentration of therapeutic and/or prophylactic agent in the nanoparticle composition can be calculated based on the extinction coefficient of the therapeutic and/or prophylactic agent used in the composition and on the difference between the absorbance at a wavelength of, for example, 260 nm and the baseline value at a wavelength of, for example, 330 nm.

[17] = Table 1, rows without footnote mark
[18] = Table 1, rows without footnote mark (lipid:DOPE:cholesterol:PEG-DMG 40:20:38.5:1.5, Luc mRNA; MC3 standard formulation)
[19] = Table 5, hEPO mRNA, 40:20:38.5:1.5 Lipid:DOPE:Chol:PEG-DMG
[20] = Table 5, hEPO mRNA, 50:10:38.5:1.5 Lipid:DSPC:Chol:PEG-DMG

| SMILES | response vs control in vivo at 0.5 mg/kg [1] [%] | hEPO expression in rats (in words) [2] | tolerability / toxicity in rats (in words) [3] | pKa [4, 17] | EE (%) [7, 17] [%] | PDI [8, 17] | Size (nm) [8, 18] [nm] | LDLr dependence of the lipid (in words) [9] | IP-10 [12] | IL-6 [13] | Total Flux Femur [14] | Total Flux Liver [14] | Total Flux Lung [14] | Total Flux Spleen [14] | Total Flux 3 hours ([15]; mice, i.v., 0.5 mg/kg, 3 hours) | Total Flux 6 hours ([15]; mice, i.v., 0.5 mg/kg) | Total Flux 24 hours ([15]; mice, i.v., 0.5 mg/kg) | other results |
| --- | --- | --- | --- | --- | --- | --- | --- | --- | --- | --- | --- | --- | --- | --- | --- | --- | --- | --- |
| CCCCCCCCCCCCN(CCCCCCCCCCCC)CCN(CCCCCCCCCCCC)CCN1CCN(CCN(CCCCCCCCCCCC)CCCCCCCCCCCC)CC1 [KL22, N1-[2-(didodecylamino)ethyl]-N1,N4,N4-tridodecyl-1,4-piperazinediethanamine, reference compound] | 51 | do not express hEPO in rats | toxic |  |  |  |  |  |  |  |  |  |  |  |  |  |  |  |
| CCCCCCCCCN(CCCCCCCCC)CCN(CCCCCCCCC)CC(=O)N1CCN(C(=O)CN(CCCCCCCCC)CCCCCCCCC)CC1 [Compound 4, 2-(Dinonylamino)-1-(4-(N-(2-(dinonylamino)ethyl)-N-nonylglycyl)piperazin-1-yl)ethan-1-one] | 54 |  |  | 7.12 | 96.78 | 0.120 | 89.7 | LDLr independent lipid |  |  |  |  |  |  |  |  |  | GFP protein expression in liver cell types (in words) [5]: less protein expression in Kupffer cells; % change in Luc expression in livers of ApoE knockout vs. wild-type mice ([6]; FIG. 17 Graph A, liver): 91.9%; % change in expression in spleens of ApoE knockout vs. wild-type mice ([6]; FIG. 17 Graph B, spleen): 4.34%; expression of hEPO compared to MC3 [10]: 3 fold; AUC (0.1 mpk) ([2]; hEPO expression in S.D. rats, 0.1 mpk): 2.12E+06; AUC/MC3 0.1 mpk ([2]; hEPO expression in S.D. rats, 0.1 mpk, relative to MC3): 1.3; AUC (1 mpk) ([2]; hEPO expression in S.D. rats, 1 mpk): 6.79E+07; AUC/MC3 1 mpk ([2]; hEPO expression in S.D. rats, 1 mpk, relative to MC3): 0.58; concentration at 48 h ([11]; liver, 48 hours after administration, read-out: Lipid in liver): 22000 ng/g; concentration at 48 h ([11]; spleen, 48 hours after administration, read-out: Lipid in spleen): 5340 ng/g; % remaining dose in liver ([11]; liver, 48 hours after administration): 38%; % dose remainng Rat liver (48 h) ([11]; rat liver, 48 h): 37.82%; % remaining dose in spleen ([11]; spleen, 48 hours after administration): 0.61% |
| CCCCCCCCCCCCN(CCCCCCCCCCCC)CCN(CCCCCCCCCCCC)CC(=O)N1CCN(C(=O)CN(CCCCCCCCCCCC)CCCCCCCCCCCC)CC1 [Compound 11, 2-(Didodecylamino)-1-(4-(N-(2-(didodecylamino)ethyl)-N-dodecylglycyl)piperazin-1-yl)ethan-1-one] |  | comparable to MC3 | improved tolerability as compared to KL22 | 6.54 | 99.5 | 0.099 | 87.4 | LDLr independent lipid | 3305 | 250 | 1.47E+06 | 1.67E+09 | 2.21E+06 | 7.21E+06 | 1.23E+10 | 3.81E+09 | 8.20E+08 | LDL-c levels in LDLR knockout mice (in words) ([1]; FIG. 9 Graph B, mRNA encoding the LDL receptor, 0.5 and 1 mpk): found to drop |
| CCCCCCCCCCCCN(CCCCCCCCCCCC)CCN(CCCCCCCCCCCC)CCN1CCN(CCN(CCCCCCCCC)CCCCCCCCC)CC1 [Compound 23, N^1-(2-(4-(2-(Dinonylamino)ethyl)piperazin-1-yl)ethyl)-N^1,N^2,N^2-tridodecylethane-1,2-diamine] |  |  | toxic | 6.07 | 82.9 | 0.058 | 85.4 |  | 3702 | 259 | 3.17E+06 | 4.94E+09 | 1.51E+07 | 2.95E+07 | 2.33E+10 | 3.40E+10 | 1.06E+09 | pKa [4, 19]: 6.070; pKa [4, 20]: 6.164; EE (%) [7, 19]: 77.19%; EE (%) [7, 20]: 51.46%; PDI [8, 19]: 0.16; Size (nm) [8, 19]: 98.5 nm; PDI [8, 20]: 0.11; Size (nm) [8, 20]: 95.2 nm; Luc expression in mice compared with MC3 (in words) ([15]; Table 7a): several fold higher; total flux after 3 hours, rank within the named table (in words) ([15]; mice, i.v., 0.5 mg/kg, 3 hours): highest flux after 3 hours; Conc. ([16]; 40:20:38.5:1.5 Lipid:DOPE:Chol:PEG-DMG): 438.20 µg/mL; Conc. ([16]; 50:10:38.5:1.5 Lipid:DSPC:Chol:PEG-DMG): 454.58 µg/mL |
